Results reported in patent US20170354629A1, “Method And Compositions For Treating Skin” (ELC Management LLC, priority 2011, published 2017).

Assays:
per1 gene expression = per1 gene expression luciferase reporter assay in keratinocytes; type: cell-based; conditions: normal human epidermal keratinocytes (NHEK) transfected with pGL4.11 per1/luciferase plasmid; 16 hours incubation with test material; values only in FIGS. 1 and 2
Description: Cichoric acid and […] purpurea extract ([…]) were tested to determine per1 gene expression. Normal human epidermal keratinocytes (NHEK) were diluted in […] with supplement S001-5 added (Gibco, Cascade Biologics, Invitrogen) to form a concentration of 3×10^4 and plated onto a black walled 96 well microtiter plate by adding 100 μl in each well. The plate was incubated for 3 hours at 37° C. in 5% CO2. The media was removed and remaining adhered cells rinsed with […], supplement free. A plasmid solution was prepared by diluting Tris-EDTA pH 8.0 buffer with plasmid pGL4.11 (DNA 2.0, Carlsbad, Calif.) to form a 1 mg/ml solution. This plasmid contained a per1 gene sequence and a luciferase reporter gene sequence. A transfection mixture was prepared by diluting […], supplement free, to form a solution with 0.31 μg/ml of plasmid (obtained by adding appropriate amount of plasmid solution prepared above), 1.28% PlusTM Reagent (Catalog No. 11514-015, Invitrogen, Carlsbad, Calif.), and 3.22% LipofectamineTM Transfection Reagent (Catalog No. 18324-012, Invitrogen, Carlsbad, Calif.). […] Immediately prior to reading, Bright-GloTM (Pro-Mega, Madison Wis.) was added to each well plate in the same volume as is currently in the well (e.g. a 1:1 dilution). Luminescence was measured in an LMaxTM Microplate Luminometer (Molecular Devices, Sunnyvale, Calif.).

[1] = system: per1 gene expression in skin cells; test: observation of per1 gene expression in skin cells (no method given); type: cell-based; conditions: component commonly found in extracts of Echinacea

| Compound | per1 gene expression (luminescence of per1-luciferase reporter) (per1 gene expression) | per1 gene expression in skin cells [1] |
| --- | --- | --- |
| O=C(/C=C/c1ccc(O)c(O)c1)O[C@@H](C(=O)O)[C@@H](OC(=O)/C=C/c1ccc(O)c(O)c1)C(=O)O [cichoric acid] | stimulate per1 gene expression | – |
| O=C(/C=C/c1ccc(O)c(O)c1)O[C@@H](C(=O)O)[C@@H](O)C(=O)O [caftaric acid] | – | does not increase per1 gene expression |
